The text below walks through data of PubChem BioAssay (NCI).

Molecules are shown by their SMILES.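 Step 1: Grow cells in 96-well plates. Step 2: Expose to compound for 48 hours at 5 concentrations. Step 3: Interpolate endpoints linearly; if unreached, use highest concentration. TGI is the concentration that stops growth completely.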

What all share (assay): NCI-60 cell line screen, 48 h
Assay [1] deals with 786-0 renal.
The test system of assay [2] is CAKI-1 renal.
Assay [3] deals with CCRF-CEM leukemia.
Assay [4] relates to HCC-2998 colon.
Assay [5] relates to HCT-116 colon.
The subject of assay [6] is HOP-92 NSCLC.
Assay [7] has as its system HT29 colon.
For assay [8], the system named is IGROV1 ovarian.
Assay [9] relates to MDA-MB-231 breast.
Assay [10] concerns MDA-N.
Assay [11] deals with NCI-H23 lung.
For assay [12], the system named is NCI-H522 lung.
Assay [13] deals with NCI/ADR-RES ovarian.
For assay [14], the system named is RPMI-8226 leukemia.
Assay [15] relates to SF-268 CNS.
The subject of assay [16] is SK-MEL-5 melanoma.
In assay [17] the test system is SNB-19 CNS.
The subject of assay [18] is UACC-257 melanoma.
For assay [19], the system named is UACC-62 melanoma.
Assay [20] relates to UO-31 renal.

For the molecule `CC(=O)OCC1OC(O[C@@H]2C[C@H]3C(C)(C)[C@H](OC(C)=O)CC[C@]3(C)[C@H]3CC[C@@]45C[C@H](O)C[C@H](C)[C@@H]4CC=C5[C@@]32C)C(O)C(O)C1O` (stereo partly drawn), the TGI was 12.8 µM in assay [1]; 24.6 µM in assay [2]; 13.6 µM in assay [3]; 3.72 µM in assay [4]; 4.85 µM in [5]; 15 µM in assay [6]. For the same molecule, the TGI came to 3.7 µM in [7]; 9.33 µM in assay [8]; 11.6 µM in assay [9]; 12.4 µM in [10]; 18.3 µM in assay [11]; 9.28 µM in assay [12]. In addition, the TGI in assay [13] amounted to 32.9 µM; in assay [14], 6.02 µM; in assay [15], 15.6 µM; in assay [16] it was 8.65 µM; in assay [17], 14.9 µM; in [18] it was 17.8 µM. Besides, the TGI amounted to 16.6 µM in [19] and 26.3 µM in assay [20].
Regarding `CCC(C#N)N(Cc1ccc(CN(C(=O)c2ccccc2)C(C#N)CC)cc1)C(=O)c1ccccc1` (stereo not drawn), the TGI in assay [1] is 50.2 µM; in assay [2], more than 100 µM; in [3], 51.1 µM; in assay [4], 36.7 µM; in [5] it was 96.8 µM; in [6] it was 35.3 µM. For the same molecule, the TGI was 43.9 µM in [7]; 61.8 µM in [8]; 85.2 µM in [9]; more than 100 µM in [10]; more than 100 µM in [11]; more than 100 µM in [12]. Besides, the TGI in assay [13] is more than 100 µM; in [14] it was 42.7 µM; in assay [15], more than 100 µM; in assay [16], 25.8 µM; in [17], more than 100 µM; in [18], 49 µM. The TGI came to 60.1 µM in [19] and 93.4 µM in [20].
For `CCOC(=O)C(Cc1ccc(OC(=O)c2ccc(OC)cc2OC)cc1)NC(=O)C(F)(F)F` (stereo not drawn), the TGI in assay [1] is 93.6 µM; in assay [2], 75.8 µM; in assay [3], 83.8 µM; in [4] it was 31.2 µM; in [5], more than 100 µM; in [6], 55.1 µM. For the same molecule, the TGI is 47.1 µM in assay [7]; 41.8 µM in [8]; more than 100 µM in assay [9]; 49.3 µM in [10]; 45.1 µM in [11]; 40.9 µM in assay [12]. Further, the TGI in assay [13] is 79.4 µM; in [14], 50.7 µM; in assay [15] it was more than 100 µM; in [16], more than 100 µM; in assay [17] it was more than 100 µM; in [18], 29.4 µM. The TGI is 30.5 µM in [19] and 34.5 µM in [20].
Turning to `NC(=O)ON=C1CCN(Cc2ccccc2)CC1`, the TGI in [1], in assay [2], in assay [3], in [4], in [5] and in assay [6] was more than 100 µM each time. Also, the TGI in assay [7], in assay [8], in [9], in assay [10], in assay [11] and in [12] was more than 100 µM throughout. Moreover, the TGI in assay [13], in [14], in [15], in assay [16], in [17] and in [18] was more than 100 µM each time. Moreover, the TGI in [19] and in assay [20] was more than 100 µM each time.
With `CCOC(=O)CCC(NC(=O)N1CCN(c2c(C)nc(C)[nH]c2=O)CC1)C(=O)OCC` (stereo not drawn), the TGI in [1], in assay [2], in assay [3], in assay [4], in [5] and in assay [6] was more than 100 µM in each case. Also, the TGI in assay [7], in [8], in assay [9], in assay [10], in [11] and in assay [12] was more than 100 µM throughout. Also, the TGI in [13], in assay [14], in assay [15], in assay [17], in [18] and in [19] was more than 100 µM throughout. This molecule yielded a TGI in [20] of more than 100 µM.
As for `COc1ccc2cc(-c3ccc(OC)c(OC)c3)c(=O)oc2c1`, the TGI in assay [1], in assay [2], in [3], in assay [4], in [5] and in [6] was more than 100 µM in each case. Moreover, the TGI in [7], in [8], in assay [9], in assay [10], in assay [11] and in assay [12] was more than 100 µM in each case. Also, the TGI in assay [13], in assay [14], in [15], in [16], in assay [17] and in assay [18] was more than 100 µM in each case. The TGI in assay [19] and in assay [20] was more than 100 µM in each case.
For the molecule `Nc1ccc(-c2nc3cc(F)ccc3s2)cc1Br`, the TGI in [1] was more than 100 µM; in [2], more than 100 µM; in [3], more than 100 µM; in assay [4], 0.0345 µM; in [5], more than 100 µM; in assay [6], more than 100 µM. Also, the TGI in [7] was more than 100 µM; in assay [8], more than 37.2 µM; in assay [9], more than 73.2 µM; in assay [10], more than 100 µM; in [12] it was more than 100 µM; in [13], more than 100 µM. In addition, the TGI in assay [14], in [15], in [16], in assay [17], in assay [18] and in assay [19] was more than 100 µM in each case. In addition, the TGI in assay [20] was more than 100 µM.
